Results: ChEMBL document CHEMBL1759854, “Inhibitors of the tyrosine kinase EphB4. Part 4: Discovery and optimization of a benzylic alcohol series” (Bioorg Med Chem Lett, 2011)

Assays:
physchem = settings: octanol/water
[1] = AUC in nude mouse at 100 umol/kg, po; type: ADME, organism-based; settings: plasma
Rattus norvegicus = assay: Clearance in Han Wistar rat assessed as liver blood flow at 1 or 2.5 µmol/kg, iv and 5 or 10 µmol/kg, po; settings: in vivo
[2] = Volume of distribution at steady state in Han Wistar rat at 1 or 2.5 µmol/kg, iv and 5 or 10 µmol/kg, po; settings: in vivo, read-out: Vdss
[3] = AUC in nude mouse at 200 umol/kg, po; type: ADME, organism-based; settings: plasma
[4] = Cmax in nude mouse at 100 umol/kg, po; type: ADME, organism-based; parameters: dose 100 umol/kg, route oral; settings: in vivo
[5] = Oral bioavailability in Han Wistar rat at 5 or 10 µmol/kg, po; settings: in vivo
Canis familiaris = assay: Clearance in Beagle dog assessed as liver blood flow at 2 umol/kg, iv and 5 umol/kg, po; type: ADME, organism-based, Canis lupus familiaris; settings: in vivo
[6] = AUC in nude mouse at 10 umol/kg, po; type: ADME, organism-based; settings: plasma
[7] = Cmax in nude mouse at 10 umol/kg, po; type: ADME, organism-based; parameters: dose 10 umol/kg, route oral; settings: in vivo
[8] = Volume of distribution at steady state in Beagle dog at 2 umol/kg, iv and 5 umol/kg, po; type: ADME, organism-based, Canis lupus familiaris; settings: in vivo, read-out: Vdss
[9] = Cmax in nude mouse at 200 umol/kg, po; type: ADME, organism-based; parameters: dose 200 umol/kg, route oral; settings: in vivo
[10] = Oral bioavailability in Beagle dog at 5 umol/kg, po; type: ADME, organism-based, Canis lupus familiaris; settings: in vivo

Question: Which logD (physchem) does the source give for Cc1ccc(CO)cc1N(C)c1ccnc(Nc2cc(CN3CCOCC3)cc(N3CCOCC3)c2)n1 here?
Answer: The logD was 3.

Question: For COCCN(c1ccnc(Nc2cc(N3CCOCC3)cc(N3CCOCC3)c2)n1)c1cc(CO)ccc1C, which logD (physchem) is on record?
Answer: Its logD is 2.8.

Question: Which logD (physchem) does the source give for CCN(c1ccnc(Nc2cc(N3CCOCC3)cc(N3CCOCC3)c2)n1)c1cc(CO)ccc1C here?
Answer: The logD was 3.8.

Question: With Cc1ccc(CO)cc1N(C)c1ccnc(Nc2cc(C(=O)N3CCOCC3)cc(N3CCOCC3)c2)n1 as the compound, how does the logD (physchem) read?
Answer: The logD was 2.2.

Question: With Cc1ccc(CO)cc1N(c1ccnc(Nc2cc(N3CCOCC3)cc(S(C)(=O)=O)c2)n1)C(C)C as the compound, how does the logD (physchem) read?
Answer: Its logD is 3.4.

Question: Which logD (physchem) does the source give for Cc1ccc(CO)cc1N(C)c1ccnc(Nc2cc(N3CCCCC3)cc(N3CCOCC3)c2)n1 here?
Answer: Its logD is 4.2.

Question: Which logD (physchem) does the source give for Cc1ccc(CO)cc1N(C)c1ccnc(Nc2cc(N3CCCC3)cc(N3CCOCC3)c2)n1 here?
Answer: The logD was 3.8.

Question: For COc1cc(Nc2nccc(N(C)c3cc(CO)ccc3C)n2)cc(N2CCOCC2)c1, which logD (physchem) is on record?
Answer: Its logD is 3.9.

Question: For Cc1ccc(CO)cc1N(C)c1ccnc(Nc2cc(N3CCOCC3)cc(N3CCN(O)CC3)c2)n1, which logD (physchem) is on record?
Answer: The logD was 2.8.

Question: For COCCOc1cc(Nc2nccc(N(C)c3cc(CO)ccc3C)n2)cc(N2CCOCC2)c1, which logD (physchem) is on record?
Answer: The logD was 3.3.

Question: With Cc1ccc(CO)cc1N(C)c1ccnc(Nc2cc(OC3CCOCC3)cc(N3CCOCC3)c2)n1 as the compound, how does the logD (physchem) read?
Answer: The logD was 3.7.

Question: For Cc1ccc(CO)cc1N(C)c1ccnc(Nc2cc(N3CCOCC3)nc(N3CCOCC3)n2)n1, which logD (physchem) is on record?
Answer: Its logD is 3.9.

Question: What does the source list for Cc1ccc(CO)cc1N(C)c1ccnc(Nc2cc(N3CCOCC3)cc(N3CCOCC3)c2)n1?
Answer: AUC [1]: 63 µM·h; LBF (Rattus norvegicus): 11%; Vd [2]: 0.5 L/kg; AUC [3]: 155 µM·h; Cmax [4]: 15 µM; bioavailability [5]: 78%; LBF (Canis familiaris): 51%; AUC [6]: 1.6 µM·h; Cmax [7]: 1.9 µM; logD (physchem): 3.1; Vd [8]: 2.1 L/kg; Cmax [9]: 17 µM; bioavailability [10]: 58%

Question: Which results are given for Cc1ccc(CO)cc1N(C)c1ccnc(Nc2cc(N3CCOCC3)cc(S(C)(=O)=O)c2)n1?
Answer: LBF (Rattus norvegicus): 16%; Vd [2]: 0.4 L/kg; bioavailability [5]: 17%

Question: For Cc1ccc(CO)cc1N(C)c1ccnc(Nc2cc(N3CCCOCC3)cc(N3CCOCC3)c2)n1, which logD (physchem) is on record?
Answer: The logD was 3.3.

Question: With Cc1ccc(CO)cc1N(C)c1ccnc(Nc2cc(N3CCOCC3)nc(N3CCOCC3)c2)n1 as the compound, how does the LBF (Rattus norvegicus) read?
Answer: The LBF was 9%.

Question: What about the Vd [2] of the same compound?
Answer: The Vd was 0.7 L/kg.

Question: And the bioavailability [5]?
Answer: Its bioavailability is 64%.

Question: And the LBF (Canis familiaris)?
Answer: Its LBF is 57%.

Question: What about the logD (physchem) of the same compound?
Answer: Its logD is 3.4.

Question: And the Vd [8]?
Answer: The Vd was 1.6 L/kg.

Question: What about the bioavailability [10] of the same compound?
Answer: The bioavailability was 22%.
